{"source": "patent US20230045421A1", "about": "(priority 2018, published 2023)"}
{"test_system": "HBV rcDNA", "assay": "HepDE19 assay with bDNA quantitation of HBV rcDNA", "format": "cell-based, hepatitis B virus", "settings": "HepDE19 assay, inhibition of formation of relaxed circular DNA (rcDNA), bDNA quantitation; read-out: DE-19bDNA EC50", "outline": "(§1)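 Compounds, top concentration 25 μM in 8-point duplicate series, were applied to Tet-free HepDE19 cultures for 7 days. Branched-DNA quantitation of HBV rcDNA against untreated wells gave EC50 and EC90 by 4-parameter fit. Viability (CC50) came from ATP luminescence on parallel plates incubated 4 days.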", "units": {"EC50": "nM"}}
{"compound": "CC(c1c[nH]c(=O)c2c(F)cccc12)N(CCCO)C(=O)Nc1ccc(F)c(Cl)c1", "note": "(single isomer, unassigned) [Compound 366, 3-(3-Chloro-4-fluorophenyl)-1-(1-(8-fluoro-1-oxo-1,2-dihydroisoquinolin-4-yl)ethyl)-1-(3-hydroxypropyl)urea]", "EC50": 11000}
{"compound": "CC(c1c[nH]c(=O)c2c(F)cccc12)N(CCCO)C(=O)Nc1ccc(F)c(Cl)c1", "note": "(single isomer, unassigned) [Compound 367, 3-(3-Chloro-4-fluorophenyl)-1-(1-(8-fluoro-1-oxo-1,2-dihydroisoquinolin-4-yl)ethyl)-1-(3-hydroxypropyl)urea]", "EC50": 8}
{"compound": "CC(c1c[nH]c(=O)c2c(F)cc(F)cc12)N(C)C(=O)Nc1ccc(F)c(Cl)c1", "note": "(single isomer, unassigned) [Compound 368, 3-(3-Chloro-4-fluorophenyl)-1-(1-(6,8-difluoro-1-oxo-1,2-dihydroisoquinolin-4-yl)ethyl)-1-methylurea]", "EC50": 2500}
{"compound": "CC(c1c[nH]c(=O)c2c(F)cc(F)cc12)N(C)C(=O)Nc1ccc(F)c(Cl)c1", "note": "(single isomer, unassigned) [Compound 369, 3-(3-Chloro-4-fluorophenyl)-1-(1-(6,8-difluoro-1-oxo-1,2-dihydroisoquinolin-4-yl)ethyl)-1-methylurea]", "EC50": 19}
{"compound": "CC(c1c[nH]c(=O)c2c(F)cc(F)cc12)N(C)C(=O)Nc1ccc(F)cc1", "note": "(single isomer, unassigned) [Compound 370, 1-(1-(6,8-Difluoro-1-oxo-1,2-dihydroisoquinolin-4-yl)ethyl)-3-(4-fluorophenyl)-1-methylurea]", "EC50": 5600}
{"compound": "CC(c1c[nH]c(=O)c2c(F)cc(F)cc12)N(C)C(=O)Nc1ccc(F)cc1", "note": "(single isomer, unassigned) [Compound 371, 1-(1-(6,8-Difluoro-1-oxo-1,2-dihydroisoquinolin-4-yl)ethyl)-3-(4-fluorophenyl)-1-methylurea]", "EC50": 53}
{"compound": "CC(C)CN(C(=O)Nc1ccc(F)c(Cl)c1)C(C)c1c[nH]c(=O)c2c(F)cc(F)cc12", "note": "(single isomer, unassigned) [Compound 372, 3-(3-Chloro-4-fluorophenyl)-1-(1-(6,8-difluoro-1-oxo-1,2-dihydroisoquinolin-4-yl)ethyl)-1-isobutylurea]", "EC50": 5}
{"compound": "CC(C)CN(C(=O)Nc1ccc(F)cc1)C(C)c1c[nH]c(=O)c2c(F)cc(F)cc12", "note": "(single isomer, unassigned) [Compound 375, 1-(1-(6,8-Difluoro-1-oxo-1,2-dihydroisoquinolin-4-yl)ethyl)-3-(4-fluorophenyl)-1-isobutylurea]", "EC50": 1700}
{"compound": "CC(C)CN(C(=O)Nc1ccc(F)cc1)C(C)c1c[nH]c(=O)c2c(F)cc(F)cc12", "note": "(single isomer, unassigned) [Compound 376, 1-(1-(6,8-Difluoro-1-oxo-1,2-dihydroisoquinolin-4-yl)ethyl)-3-(4-fluorophenyl)-1-isobutylurea]", "EC50": 7}
{"compound": "CC(c1c[nH]c(=O)c2c(F)cc(F)cc12)N(CCCO)C(=O)Nc1ccc(F)cc1", "note": "(single isomer, unassigned) [Compound 377, 1-(1-(6,8-Difluoro-1-oxo-1,2-dihydroisoquinolin-4-yl)ethyl)-3-(4-fluorophenyl)-1-(3-hydroxypropyl) urea]", "EC50": 11000}
{"compound": "CC(c1c[nH]c(=O)c2c(F)cc(F)cc12)N(CCCO)C(=O)Nc1ccc(F)cc1", "note": "(single isomer, unassigned) [Compound 378, 1-(1-(6,8-Difluoro-1-oxo-1,2-dihydroisoquinolin-4-yl)ethyl)-3-(4-fluorophenyl)-1-(3-hydroxypropyl) urea]", "EC50": 24}
{"test_system": "HBV rcDNA", "assay": "HepDE19 assay with bDNA quantitation of HBV rcDNA", "format": "cell-based, hepatitis B virus", "settings": "Hepatitis B virus, HepDE19, HepDE19 assay, inhibition of formation of relaxed circular DNA (rcDNA), bDNA quantitation; read-out: DE-19bDNA EC50", "outline": "as §1", "units": {"EC50": "nM"}}
{"compound": "CC(c1c[nH]c(=O)c2c(F)cc(F)cc12)N(CCCO)C(=O)Nc1ccc(F)c(Cl)c1", "note": "(single isomer, unassigned) [Compound 374, 3-(3-Chloro-4-fluorophenyl)-1-(1-(6,8-difluoro-1-oxo-1,2-dihydroisoquinolin-4-yl)ethyl)-1-(3-hydroxypropyl)urea]", "EC50": 6}
